Experimental findings from ChEMBL document CHEMBL1201862, “PubChem BioAssay data set” (2004) are described below.

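How tested: cells in 96-well plates exposed to compound for 48 hours at five concentrations. Abbreviation: GI50, concentration required for 50% inhibition of growth.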 Active and inactive are the calls of the source. No stated cut-off is given here; in the data, active = GI50 up to about 1.1 µM and inactive = higher. Where only a bound is given, the exact number is not on record here.

Test systems include BT-549; SF-295; NCI-H522; MDA-MB-435; NCI-H460; HOP-62; SK-MEL-2; HCT-116; IGROV-1; SN12C; KM12; HCT-15; SK-MEL-28; SK-MEL-5; ACHN; EKVX; OVCAR-8; MCF7; NCI-H226.
Holding throughout (assay): NCI tumour cell line growth inhibition, 48 h

`CC1NC(=O)C2Cc3ccc(O)c(c3)Oc3ccc(cc3)C(O)C(C(=O)N2C)N(C)C(=O)C(C)NC(=O)C(Cc2ccc(O)cc2)N(C)C(=O)C(C)NC1=O` (centres undefined): the GI50 with BT-549 is 24.6 µM (inactive); with SF-295 it was > 100 µM (inactive); in the test on NCI-H522 it was 9.44 µM (inactive); in the test on MDA-MB-435, 18.8 µM (inactive); in the test with NCI-H460, 31.3 µM (inactive); with HOP-62, 34.7 µM (inactive). In addition, the GI50 was 8.41 µM (inactive) in the test on SK-MEL-2; 9.64 µM (inactive) in the test on HCT-116; 4.85 µM (inactive) in the test with IGROV-1; > 10 µM (inactive) in the test on SN12C; 9.68 µM (inactive) with KM12; more than 100 µM in the test with HCT-15. Also, the GI50 in the test with SK-MEL-28 is 19.2 µM (inactive); in the test with SK-MEL-5 it was 31.6 µM (inactive); in the test with ACHN it was > 100 µM (inactive); in the test with EKVX, 57 µM (inactive); with OVCAR-8, 24.7 µM (inactive); in the test with MCF7 it was 13.7 µM (inactive).
As for `O=[N+]([O-])c1ccc(-c2ccc([C@H]3CC(c4cc(F)c(Cl)cc4Cl)=NN3)o2)cc1`, the GI50 is 25.4 µM (inactive) with BT-549; 44.2 µM (inactive) in the test with SF-295; 16.6 µM (inactive) with NCI-H522; 26.7 µM (inactive) with MDA-MB-435; 0.435 µM (active) in the test on NCI-H460; 17 µM (inactive) with HOP-62. Besides, the GI50 is 29.6 µM (inactive) in the test with HCT-116; 38.7 µM (inactive) with IGROV-1; 24.3 µM (inactive) in the test on SN12C; 21.9 µM (inactive) in the test with NCI-H226; 0.625 µM (active) with KM12; 1.52 µM with HCT-15. Further, the GI50 in the test with SK-MEL-5 is 7.83 µM (inactive); with ACHN it was 32.1 µM (inactive); with EKVX it was > 100 µM (inactive); in the test with OVCAR-8, 10.8 µM (inactive); in the test with MCF7 it was 16.7 µM (inactive).
With `COc1c(C)c(C/C=C(\C)CCCCO[Si](C(C)C)(C(C)C)C(C)C)c(OC)c2ccccc12`, the GI50 in the test with BT-549, in the test on SF-295, in the test with NCI-H522, with MDA-MB-435, in the test with NCI-H460 and in the test on HOP-62 was > 100 µM (inactive) throughout. Besides, the GI50 is > 100 µM (inactive) with SK-MEL-2; > 100 µM (inactive) with HCT-116; > 100 µM (inactive) with IGROV-1; > 100 µM (inactive) with SN12C; > 100 µM (inactive) with KM12; more than 100 µM with HCT-15. The GI50 in the test with SK-MEL-5, in the test on ACHN, with EKVX, in the test on OVCAR-8 and in the test with MCF7 was > 100 µM (inactive) in each case.
Turning to `O=[N+]([O-])c1ccc(Cc2nc3cc4ccccc4cc3[nH]2)cc1C(F)(F)F`, the GI50 with BT-549 was 18.2 µM (inactive); with SF-295, 11.9 µM (inactive); with NCI-H522 it was 20.4 µM (inactive); in the test on MDA-MB-435, 6.12 µM (inactive); with NCI-H460 it was 7.82 µM (inactive); in the test with HOP-62 it was 13.8 µM (inactive). Also, the GI50 in the test with SK-MEL-2 was 20 µM (inactive); in the test on HCT-116, 13.9 µM (inactive); with SN12C, 18.7 µM (inactive); in the test on KM12, 13.4 µM (inactive); in the test on HCT-15, 12 µM; in the test on SK-MEL-28, 24.2 µM (inactive). Also, the GI50 in the test on SK-MEL-5 was 10.7 µM (inactive); in the test with ACHN, 15.8 µM (inactive); with EKVX, 25.8 µM (inactive); in the test with OVCAR-8, 19 µM (inactive); in the test with MCF7 it was 15.5 µM (inactive).
